PubChem BioAssay (NCI)
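All cell lines were grown in 96-well plates and treated with compound for 48 hours. Here, GI50 denotes the concentration required for 50% inhibition of growth. TGI is the concentration that stops growth completely.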

Experiments:
Assay in all cases: growth of human tumour cells (NCI), 48 h
[1] = test system: 786-0 renal
[2] = test system: A549 NSCLC
[3] = test system: ACHN renal
[4] = test system: BT-549 breast
[5] = test system: CAKI-1 renal
[6] = test system: CCRF-CEM leukemia
[7] = test system: COLO 205 colon
[8] = test system: DU-145 prostate
[9] = test system: EKVX NSCLC
[10] = test system: HCC-2998 colon
[11] = test system: HCT-116 colon
[12] = test system: HCT-15 colon
[13] = test system: HL-60(TB) leukemia
[14] = test system: HOP-62 NSCLC
[15] = test system: HOP-92 NSCLC
[16] = test system: HS 578T breast
[17] = test system: HT29 colon
[18] = test system: IGROV1 ovarian
[19] = test system: K-562 leukemia
[20] = test system: KM12 colon
[21] = test system: LOX IMVI melanoma
[22] = test system: M14 melanoma
[23] = test system: MALME-3M melanoma
[24] = test system: MCF7 breast
[25] = test system: MDA-MB-231 breast
[26] = test system: MDA-MB-435
[27] = test system: MOLT-4 leukemia
[28] = test system: NCI-H226 lung
[29] = test system: NCI-H23 lung
[30] = test system: NCI-H460 lung
[31] = test system: NCI-H522 lung
[32] = test system: NCI/ADR-RES ovarian
[33] = test system: OVCAR-3 ovarian
[34] = test system: OVCAR-4 ovarian
[35] = test system: OVCAR-5 ovarian
[36] = test system: OVCAR-8 ovarian
[37] = test system: PC-3 prostate
[38] = test system: RPMI-8226 leukemia
[39] = test system: RXF 393 renal
[40] = test system: SF-268 CNS
[41] = test system: SF-295 CNS
[42] = test system: SF-539 CNS
[43] = test system: SK-MEL-2 melanoma
[44] = test system: SK-MEL-28 melanoma
[45] = test system: SK-MEL-5 melanoma
[46] = test system: SK-OV-3 ovarian
[47] = test system: SN12C renal
[48] = test system: SNB-19 CNS
[49] = test system: SNB-75 CNS
[50] = test system: SR leukemia
[51] = test system: T-47D breast
[52] = test system: TK-10 renal
[53] = test system: U251 CNS
[54] = test system: UACC-257 melanoma
[55] = test system: UACC-62 melanoma
[56] = test system: UO-31 renal
[57] = test system: A498 renal
[58] = test system: SW-620 colon

Work on `O=C(c1ccc2ccccc2c1)c1c(C(F)(F)F)n([O-])c2cc(C(F)(F)F)ccc2[n+]1=O` yielded a GI50 [1] of 1.62 µM, a TGI [1] of 3.15 µM and a GI50 [2] of 1.66 µM. The TGI [2] was 3.51 µM, the GI50 [3] was 1.5 µM and the TGI [3] was 2.88 µM. It also gave a GI50 [4] of 1.43 µM, a TGI [4] of 2.9 µM and a GI50 [5] of 0.621 µM. For the same compound, the TGI [5] was 1.45 µM, the TGI [6] was 0.385 µM and the GI50 [7] was 1.92 µM. It also gave a TGI [7] of 4.05 µM, a GI50 [8] of 1.67 µM and a TGI [8] of 3.12 µM. The GI50 [9] was 1.57 µM, the TGI [9] was 3.43 µM and the GI50 [10] was 1.82 µM. It also gave a TGI [10] of 3.37 µM, a GI50 [11] of 1.41 µM and a TGI [11] of 2.78 µM. It also gave a GI50 [12] of 1.69 µM, a TGI [12] of 3.4 µM and a GI50 [13] of 1.54 µM. It also gave a TGI [13] of 3.59 µM, a GI50 [14] of 1.92 µM and a TGI [14] of 3.72 µM. The GI50 [15] was 1.39 µM, the TGI [15] was 2.79 µM and the TGI [16] was > 22.2 µM. It also gave a GI50 [17] of 1.74 µM, a TGI [17] of 3.46 µM and a GI50 [18] of 1.71 µM. The TGI [18] was 3.36 µM, the GI50 [19] was 1.38 µM and the TGI [19] was 2.9 µM. For the same compound, the GI50 [20] was 1.69 µM, the TGI [20] was 3.22 µM and the GI50 [21] was 1.63 µM. For the same compound, the TGI [21] was 3.22 µM, the GI50 [22] was 1.65 µM and the TGI [22] was 3.1 µM. It also gave a GI50 [23] of 1.67 µM, a TGI [23] of 3.36 µM and a GI50 [24] of 1.63 µM. The TGI [24] was 3.49 µM, the GI50 [25] was 1.7 µM and the TGI [25] was 3.25 µM. The GI50 [26] was 1.71 µM, the TGI [26] was 3.31 µM and the GI50 [27] was 1.49 µM. The TGI [27] was 3.9 µM, the GI50 [28] was 1.49 µM and the TGI [28] was 3.5 µM. The GI50 [29] was 2.41 µM, the TGI [29] was 5.87 µM and the GI50 [30] was 1.66 µM. It also gave a TGI [30] of 3.44 µM, a GI50 [31] of 1.55 µM and a TGI [31] of 3.09 µM. The GI50 [32] was 2.08 µM, the TGI [32] was 4.8 µM and the GI50 [33] was 1.48 µM. For the same compound, the TGI [33] was 2.97 µM, the GI50 [34] was 1.22 µM and the TGI [34] was 3.51 µM. The GI50 [35] was 2.03 µM, the TGI [35] was 4.79 µM and the GI50 [36] was 2.02 µM. It also gave a TGI [36] of 5.2 µM, a GI50 [37] of 1.34 µM and a TGI [37] of 2.75 µM. The GI50 [38] was 1.25 µM, the TGI [38] was 3.37 µM and the GI50 [39] was 1.5 µM. The TGI [39] was 3.16 µM, the GI50 [40] was 1.56 µM and the TGI [40] was 3.05 µM. For the same compound, the GI50 [41] was 1.45 µM, the TGI [41] was 2.84 µM and the GI50 [42] was 1.71 µM. For the same compound, the TGI [42] was 3.23 µM, the GI50 [43] was 2.02 µM and the TGI [43] was 3.86 µM. The GI50 [44] was 1.74 µM, the TGI [44] was 3.38 µM and the GI50 [45] was 8.14 µM. It also gave a GI50 [46] of 1.79 µM, a TGI [46] of 3.23 µM and a GI50 [47] of 1.68 µM. The TGI [47] was 3.81 µM, the GI50 [48] was 1.88 µM and the TGI [48] was 3.43 µM. It also gave a GI50 [49] of 1.73 µM, a TGI [49] of 3.13 µM and a GI50 [50] of 0.86 µM. It also gave a TGI [50] of 2.64 µM, a GI50 [51] of 1.31 µM and a TGI [51] of 3.38 µM. The GI50 [52] was 1.68 µM, the TGI [52] was 3.06 µM and the GI50 [53] was 1.75 µM. For the same compound, the TGI [53] was 3.29 µM, the GI50 [54] was 1.22 µM and the TGI [54] was 2.69 µM. For the same compound, the GI50 [55] was 1.55 µM, the TGI [55] was 3.06 µM and the GI50 [56] was 1.36 µM. For the same compound, the TGI [56] was 2.7 µM.
In the case of `CC1(C)N=c2cc3c(cc2N1c1ccc(Cl)cc1)=Nc1ccccc1N3c1ccc(Cl)cc1`, the GI50 [1] is reported as 9.66 µM, the TGI [1] is reported as > 100 µM and the GI50 [57] is reported as 8.37 µM. The TGI [57] was > 100 µM, the GI50 [2] was 5.93 µM and the TGI [2] was > 100 µM. For the same compound, the GI50 [3] was 3.53 µM, the TGI [3] was > 100 µM and the GI50 [4] was 3.5 µM. For the same compound, the TGI [4] was 60.8 µM, the GI50 [5] was 18.2 µM and the TGI [5] was > 100 µM. The GI50 [6] was 2.6 µM, the TGI [6] was 13.9 µM and the GI50 [7] was 4.66 µM. For the same compound, the TGI [7] was 21.8 µM, the GI50 [8] was 7.45 µM and the TGI [8] was > 100 µM. The GI50 [9] was 5.31 µM, the TGI [9] was > 100 µM and the GI50 [10] was 17.8 µM. For the same compound, the TGI [10] was > 100 µM, the GI50 [11] was 3.68 µM and the TGI [11] was > 100 µM. For the same compound, the GI50 [12] was 4.26 µM, the TGI [12] was > 100 µM and the GI50 [13] was 1.74 µM. For the same compound, the TGI [13] was 4.2 µM, the GI50 [14] was > 100 µM and the TGI [14] was > 100 µM. It also gave a GI50 [15] of 1.57 µM, a TGI [15] of 6.59 µM and a GI50 [16] of 12.2 µM. For the same compound, the TGI [16] was > 100 µM, the GI50 [17] was 7.85 µM and the TGI [17] was > 100 µM. The GI50 [18] was 13.4 µM, the TGI [18] was > 100 µM and the GI50 [19] was 1.68 µM. The TGI [19] was 4.95 µM, the GI50 [20] was 6.84 µM and the TGI [20] was > 100 µM. The GI50 [21] was 5.44 µM, the TGI [21] was 24.8 µM and the GI50 [22] was 9.32 µM. The TGI [22] was > 100 µM, the GI50 [23] was 4.79 µM and the TGI [23] was > 100 µM. It also gave a GI50 [24] of 2.41 µM, a TGI [24] of 23.4 µM and a GI50 [25] of 59.7 µM. For the same compound, the TGI [25] was > 100 µM, the GI50 [26] was 12.1 µM and the TGI [26] was > 100 µM. For the same compound, the GI50 [27] was 1.53 µM, the TGI [27] was 4.04 µM and the GI50 [28] was 4.95 µM. For the same compound, the TGI [28] was > 100 µM, the GI50 [29] was 3.16 µM and the TGI [29] was 27.9 µM. For the same compound, the GI50 [30] was 4.78 µM, the TGI [30] was > 100 µM and the GI50 [31] was 3.93 µM. For the same compound, the TGI [31] was 74.6 µM, the GI50 [32] was 5.21 µM and the TGI [32] was > 100 µM. The GI50 [33] was 4.07 µM, the TGI [33] was 31.7 µM and the GI50 [34] was 4.33 µM. The TGI [34] was > 100 µM, the GI50 [35] was 8.13 µM and the TGI [35] was > 100 µM. The GI50 [36] was 4.01 µM, the TGI [36] was 51.9 µM and the GI50 [37] was 2.45 µM. For the same compound, the TGI [37] was > 100 µM, the GI50 [38] was 2.05 µM and the TGI [38] was 11.8 µM. For the same compound, the GI50 [39] was 1.75 µM, the TGI [39] was 5.77 µM and the GI50 [40] was 7.56 µM. For the same compound, the TGI [40] was > 100 µM, the GI50 [41] was 2.08 µM and the TGI [41] was 28.5 µM. For the same compound, the GI50 [42] was 8.97 µM, the TGI [42] was > 100 µM and the GI50 [43] was 3.9 µM. For the same compound, the TGI [43] was > 100 µM, the GI50 [44] was 45.3 µM and the TGI [44] was > 100 µM. The GI50 [45] was 3.64 µM, the TGI [45] was 20.3 µM and the GI50 [46] was > 100 µM. For the same compound, the TGI [46] was > 100 µM, the GI50 [47] was 7.9 µM and the TGI [47] was > 100 µM. The GI50 [48] was 58.2 µM, the TGI [48] was > 100 µM and the GI50 [49] was 2.45 µM. For the same compound, the TGI [49] was 71.6 µM, the GI50 [58] was 4.68 µM and the TGI [58] was 21.9 µM. The GI50 [51] was 3.91 µM, the TGI [51] was > 100 µM and the GI50 [52] was 3.84 µM. For the same compound, the TGI [52] was 67 µM, the GI50 [53] was 8.03 µM and the TGI [53] was > 100 µM. For the same compound, the GI50 [54] was 5.52 µM, the TGI [54] was > 100 µM and the GI50 [55] was 7.18 µM. The TGI [55] was > 100 µM, the GI50 [56] was 2.96 µM and the TGI [56] was > 100 µM.
